Experimental data as given in ChEMBL document CHEMBL3044736, “Synthesis, characterization, solvatochromic properties, and antimicrobial evaluation of 5-acetyl-2-thioxo-dihydro-pyrimidine-4,6-dione-based chalcones” (2013).
Converted amounts (≈) assume the structure as drawn.

Tests used:
Type in all cases: functional
[1] = system: Penicillium; assay: Antimicrobial activity against Penicillium wild strain assessed as diameter of growth inhibition zone at 250 ug/ml after 48-96 hr by agar cup diffusion method; settings: read-out: DIZ
[2] = system: Penicillium; assay: Antimicrobial activity against Penicillium wild strain assessed as diameter of growth inhibition zone at 100 ug/ml after 48-96 hr by agar cup diffusion method; settings: read-out: DIZ
[3] = system: Trichophyton rubrum; assay: Antimicrobial activity against Trichophyton rubrum MTCC 296 assessed as diameter of growth inhibition zone at 100 ug/ml after 48-96 hr by agar cup diffusion method; settings: read-out: DIZ
[4] = system: Aspergillus clavatus; assay: Antimicrobial activity against Aspergillus clavatus MTCC 1323 assessed as diameter of growth inhibition zone at 100 ug/ml after 48-96 hr by agar cup diffusion method; settings: read-out: DIZ
[5] = system: Candida albicans; assay: Antimicrobial activity against Candida albicans MTCC 227 assessed as diameter of growth inhibition zone at 100 ug/ml after 48-96 hr by agar cup diffusion method; settings: read-out: DIZ
[6] = system: Penicillium; assay: Antimicrobial activity against Penicillium wild strain assessed as diameter of growth inhibition zone at 50 ug/ml after 48-96 hr by agar cup diffusion method; settings: read-out: DIZ
[7] = system: Trichophyton rubrum; assay: Antimicrobial activity against Trichophyton rubrum MTCC 296 assessed as diameter of growth inhibition zone at 50 ug/ml after 48-96 hr by agar cup diffusion method; settings: read-out: DIZ
[8] = system: Aspergillus clavatus; assay: Antimicrobial activity against Aspergillus clavatus MTCC 1323 assessed as diameter of growth inhibition zone at 50 ug/ml after 48-96 hr by agar cup diffusion method; settings: read-out: DIZ
[9] = system: Candida albicans; assay: Antimicrobial activity against Candida albicans MTCC 227 assessed as diameter of growth inhibition zone at 50 ug/ml after 48-96 hr by agar cup diffusion method; settings: read-out: DIZ
[10] = system: Penicillium; assay: Antimicrobial activity against Penicillium wild strain assessed as diameter of growth inhibition zone at 25 ug/ml after 48-96 hr by agar cup diffusion method; settings: read-out: DIZ
[11] = system: Trichophyton rubrum; assay: Antimicrobial activity against Trichophyton rubrum MTCC 296 assessed as diameter of growth inhibition zone at 25 ug/ml after 48-96 hr by agar cup diffusion method; settings: read-out: DIZ
[12] = system: Aspergillus clavatus; assay: Antimicrobial activity against Aspergillus clavatus MTCC 1323 assessed as diameter of growth inhibition zone at 25 ug/ml after 48-96 hr by agar cup diffusion method; settings: read-out: DIZ
[13] = system: Candida albicans; assay: Antimicrobial activity against Candida albicans MTCC 227 assessed as diameter of growth inhibition zone at 25 ug/ml after 48-96 hr by agar cup diffusion method; settings: read-out: DIZ
[14] = system: Penicillium; assay: Antimicrobial activity against Penicillium wild strain by agar cup diffusion method
[15] = system: Aspergillus clavatus; assay: Antimicrobial activity against Aspergillus clavatus MTCC 1323 by agar cup diffusion method
[16] = system: Pseudomonas aeruginosa; assay: Antimicrobial activity against Pseudomonas aeruginosa MTCC 1688 assessed as diameter of growth inhibition zone at 25 ug/ml after 18-24 hr by agar cup diffusion method; settings: read-out: DIZ
[17] = system: Escherichia coli; assay: Antimicrobial activity against Escherichia coli MTCC 443 assessed as diameter of growth inhibition zone at 25 ug/ml after 18-24 hr by agar cup diffusion method; settings: read-out: DIZ
[18] = system: Staphylococcus aureus; assay: Antimicrobial activity against Staphylococcus aureus MTCC 96 assessed as diameter of growth inhibition zone at 25 ug/ml after 18-24 hr by agar cup diffusion method; settings: read-out: DIZ
[19] = system: Streptococcus pyogenes; assay: Antimicrobial activity against Streptococcus pyogenes MTCC 442 assessed as diameter of growth inhibition zone at 25 ug/ml after 18-24 hr by agar cup diffusion method; settings: read-out: DIZ
[20] = system: Klebsiella pneumoniae; assay: Antimicrobial activity against Klebsiella pneumoniae MTCC 109 by agar cup diffusion method
[21] = system: Escherichia coli; assay: Antimicrobial activity against Escherichia coli MTCC 443 by agar cup diffusion method
[22] = system: Pseudomonas aeruginosa; assay: Antimicrobial activity against Pseudomonas aeruginosa MTCC 1688 by agar cup diffusion method
[23] = system: Staphylococcus aureus; assay: Antimicrobial activity against Staphylococcus aureus MTCC 96 by agar cup diffusion method
[24] = system: Streptococcus pyogenes; assay: Antimicrobial activity against Streptococcus pyogenes MTCC 442 by agar cup diffusion method
[25] = system: Trichophyton rubrum; assay: Antimicrobial activity against Trichophyton rubrum MTCC 296 by agar cup diffusion method
[26] = system: Candida albicans; assay: Antimicrobial activity against Candida albicans MTCC 227 by agar cup diffusion method
[27] = system: Klebsiella pneumoniae; assay: Antimicrobial activity against Klebsiella pneumoniae MTCC 109 assessed as diameter of growth inhibition zone at 250 ug/ml after 18-24 hr by agar cup diffusion method; settings: read-out: DIZ
[28] = system: Pseudomonas aeruginosa; assay: Antimicrobial activity against Pseudomonas aeruginosa MTCC 1688 assessed as diameter of growth inhibition zone at 250 ug/ml after 18-24 hr by agar cup diffusion method; settings: read-out: DIZ
[29] = system: Escherichia coli; assay: Antimicrobial activity against Escherichia coli MTCC 443 assessed as diameter of growth inhibition zone at 250 ug/ml after 18-24 hr by agar cup diffusion method; settings: read-out: DIZ
[30] = system: Staphylococcus aureus; assay: Antimicrobial activity against Staphylococcus aureus MTCC 96 assessed as diameter of growth inhibition zone at 250 ug/ml after 18-24 hr by agar cup diffusion method; settings: read-out: DIZ
[31] = system: Streptococcus pyogenes; assay: Antimicrobial activity against Streptococcus pyogenes MTCC 442 assessed as diameter of growth inhibition zone at 250 ug/ml after 18-24 hr by agar cup diffusion method; settings: read-out: DIZ
[32] = system: Klebsiella pneumoniae; assay: Antimicrobial activity against Klebsiella pneumoniae MTCC 109 assessed as diameter of growth inhibition zone at 100 ug/ml after 18-24 hr by agar cup diffusion method; settings: read-out: DIZ
[33] = system: Pseudomonas aeruginosa; assay: Antimicrobial activity against Pseudomonas aeruginosa MTCC 1688 assessed as diameter of growth inhibition zone at 100 ug/ml after 18-24 hr by agar cup diffusion method; settings: read-out: DIZ
[34] = system: Escherichia coli; assay: Antimicrobial activity against Escherichia coli MTCC 443 assessed as diameter of growth inhibition zone at 100 ug/ml after 18-24 hr by agar cup diffusion method; settings: read-out: DIZ
[35] = system: Staphylococcus aureus; assay: Antimicrobial activity against Staphylococcus aureus MTCC 96 assessed as diameter of growth inhibition zone at 100 ug/ml after 18-24 hr by agar cup diffusion method; settings: read-out: DIZ
[36] = system: Streptococcus pyogenes; assay: Antimicrobial activity against Streptococcus pyogenes MTCC 442 assessed as diameter of growth inhibition zone at 100 ug/ml after 18-24 hr by agar cup diffusion method; settings: read-out: DIZ
[37] = system: Klebsiella pneumoniae; assay: Antimicrobial activity against Klebsiella pneumoniae MTCC 109 assessed as diameter of growth inhibition zone at 50 ug/ml after 18-24 hr by agar cup diffusion method; settings: read-out: DIZ
[38] = system: Pseudomonas aeruginosa; assay: Antimicrobial activity against Pseudomonas aeruginosa MTCC 1688 assessed as diameter of growth inhibition zone at 50 ug/ml after 18-24 hr by agar cup diffusion method; settings: read-out: DIZ
[39] = system: Escherichia coli; assay: Antimicrobial activity against Escherichia coli MTCC 443 assessed as diameter of growth inhibition zone at 50 ug/ml after 18-24 hr by agar cup diffusion method; settings: read-out: DIZ
[40] = system: Staphylococcus aureus; assay: Antimicrobial activity against Staphylococcus aureus MTCC 96 assessed as diameter of growth inhibition zone at 50 ug/ml after 18-24 hr by agar cup diffusion method; settings: read-out: DIZ
[41] = system: Streptococcus pyogenes; assay: Antimicrobial activity against Streptococcus pyogenes MTCC 442 assessed as diameter of growth inhibition zone at 50 ug/ml after 18-24 hr by agar cup diffusion method; settings: read-out: DIZ
[42] = system: Klebsiella pneumoniae; assay: Antimicrobial activity against Klebsiella pneumoniae MTCC 109 assessed as diameter of growth inhibition zone at 25 ug/ml after 18-24 hr by agar cup diffusion method; settings: read-out: DIZ
[43] = system: Trichophyton rubrum; assay: Antimicrobial activity against Trichophyton rubrum MTCC 296 assessed as diameter of growth inhibition zone at 250 ug/ml after 48-96 hr by agar cup diffusion method; settings: read-out: DIZ
[44] = system: Aspergillus clavatus; assay: Antimicrobial activity against Aspergillus clavatus MTCC 1323 assessed as diameter of growth inhibition zone at 250 ug/ml after 48-96 hr by agar cup diffusion method; settings: read-out: DIZ
[45] = system: Candida albicans; assay: Antimicrobial activity against Candida albicans MTCC 227 assessed as diameter of growth inhibition zone at 250 ug/ml after 48-96 hr by agar cup diffusion method; settings: read-out: DIZ

## O=C(/C=C/c1ccc2ccccc2c1)C1C(=O)NC(=S)NC1=O
[1]
  zone of inhibition at 250 µg/mL: 23 mm
[2]
  zone of inhibition at 100 µg/mL: 21 mm
[3]
  zone of inhibition at 100 µg/mL: 22 mm
[4]
  zone of inhibition at 100 µg/mL: 25 mm
[5]
  zone of inhibition at 100 µg/mL: 24 mm
[6]
  zone of inhibition at 50 µg/mL: 18 mm
[7]
  zone of inhibition at 50 µg/mL: 20 mm
[8]
  zone of inhibition at 50 µg/mL: 20 mm
[9]
  zone of inhibition at 50 µg/mL: 22 mm
[10]
  zone of inhibition at 25 µg/mL: 18 mm
[11]
  zone of inhibition at 25 µg/mL: 18 mm
[12]
  zone of inhibition at 25 µg/mL: 18 mm
[13]
  zone of inhibition at 25 µg/mL: 22 mm
[14]
  MFC: 1000 µg/mL (≈ 3080 µM)
  MIC: 1000 µg/mL (≈ 3080 µM)
[15]
  MFC: > 1000 µg/mL
  MIC: > 1000 µg/mL
[16]
  zone of inhibition at 25 µg/mL: 10 mm
[17]
  zone of inhibition at 25 µg/mL: 14 mm
[18]
  zone of inhibition at 25 µg/mL: 10 mm
[19]
  zone of inhibition at 25 µg/mL: 14 mm
[20]
  MBC: 200 µg/mL (≈ 617 µM)
  MIC: 125 µg/mL (≈ 385 µM)
[21]
  MBC: 500 µg/mL (≈ 1540 µM)
  MIC: 250 µg/mL (≈ 771 µM)
[22]
  MBC: 125 µg/mL (≈ 385 µM)
  MIC: 100 µg/mL (≈ 308 µM)
[23]
  MBC: 250 µg/mL (≈ 771 µM)
  MIC: 200 µg/mL (≈ 617 µM)
[24]
  MBC: 250 µg/mL (≈ 771 µM)
  MIC: 250 µg/mL (≈ 771 µM)
[25]
  MFC: 1000 µg/mL (≈ 3080 µM)
  MIC: 1000 µg/mL (≈ 3080 µM)
[26]
  MFC: > 1000 µg/mL
  MIC: > 1000 µg/mL
[27]
  zone of inhibition at 250 µg/mL: 20 mm
[28]
  zone of inhibition at 250 µg/mL: 19 mm
[29]
  zone of inhibition at 250 µg/mL: 21 mm
[30]
  zone of inhibition at 250 µg/mL: 19 mm
[31]
  zone of inhibition at 250 µg/mL: 21 mm
[32]
  zone of inhibition at 100 µg/mL: 18 mm
[33]
  zone of inhibition at 100 µg/mL: 15 mm
[34]
  zone of inhibition at 100 µg/mL: 18 mm
[35]
  zone of inhibition at 100 µg/mL: 15 mm
[36]
  zone of inhibition at 100 µg/mL: 18 mm
[37]
  zone of inhibition at 50 µg/mL: 15 mm
[38]
  zone of inhibition at 50 µg/mL: 12 mm
[39]
  zone of inhibition at 50 µg/mL: 16 mm
[40]
  zone of inhibition at 50 µg/mL: 12 mm
[41]
  zone of inhibition at 50 µg/mL: 16 mm
[42]
  zone of inhibition at 25 µg/mL: 14 mm
[43]
  zone of inhibition at 250 µg/mL: 23 mm
[44]
  zone of inhibition at 250 µg/mL: 25 mm
[45]
  zone of inhibition at 250 µg/mL: 25 mm
